The values that follow come from a melting point compilation (Tetko et al.; mined from patent text by program, amines drawn as free bases though some values may be those of a salt).

In turn, `CCn1nc(-c2cccc(Cl)c2)c2ncccc2c1=O` displayed a melting point of 117 to 118 °C.

`Cc1ccc(CC(C(=O)NC(Cc2ccc(C#N)cc2)C(=O)N(C)C)S(=O)(=O)Nc2cccc3ccccc23)c(C)c1` (configuration not stated) displayed a melting point of 140 °C.

For the compound `N=C1CCCN1Cc1ccc(Cl)nc1`, the melting point was found to be 166 °C.

For the compound `Nc1c(Cl)c(C(F)(F)F)nn1-c1c(Cl)cc(C(F)(F)F)cc1Cl`, the melting point lay within 99 to 100 °C.

Consider `C[C@@H](NC(=O)c1c[nH]c2ncc(-c3nn(C)c4cc(F)ccc34)nc12)C1(C#N)CCCC1`, for which the melting point lay within 300 to 315 °C.

As for `COc1ccccc1CC(c1sccc1C)N(C)C=O` (configuration not stated), the melting point is 80 to 83 °C.

On to `CC(C)(C)c1cc(-c2nn(CC3COC(=O)O3)c3ncccc23)cc(C(C)(C)C)c1O` (configuration not stated), for which the melting point fell in the range of 140 to 141 °C.

`O=[N+]([O-])c1ccc(Oc2nn(Cc3ccccc3F)c3ncccc23)nc1` yielded a melting point of 111 to 113 °C.

`CC(C)(C)c1cc(-c2c(NC(=O)Nc3ccc(F)cc3F)c(=O)oc3ccc(Cl)cc23)cc(C(C)(C)C)c1O` had a melting point of 244 to 246 °C.

Consider `CC1(C)Cc2cc(O)c3c(c2C(c2cccc(-c4ccncc4)c2)=N1)CC(C)(C)O3`, for which the melting point is 141 to 149 °C.

In turn, `CC(=O)Nc1ccc2c3c(cccc13)CC2` had a melting point of 180 to 186 °C.

For the compound `CCNC(=O)c1ccc(-c2ccc(-c3ccccc3)c(-c3ccc4c(c3)C(C)(C)CCC4(C)C)c2)cc1`, the melting point stood at 183 °C.

`O=c1[nH]cccc1-c1cccn2nc(Nc3ccc4ncccc4c3)nc12` returned a melting point above 250 °C.

Turning to `COc1cc(C(=O)NC2CC(C)(C)N(C)C(C)(C)C2)ccc1-c1nc2cc(Cl)c(Cl)cc2[nH]1`, the melting point is 285 to 286 °C.

The compound `CC(C)(C)N1C(=O)CN(c2ccccc2)C1=O` yielded a melting point of 116 °C.

Take `O=C(O)C1CCN(C(=O)OCC2c3ccccc3-c3ccccc32)CC1`: the melting point fell in the range of 187 to 189 °C.

As for `CCCC(=O)NC1CCc2ccccc2C1` (configuration not stated), the melting point is 78 to 81 °C.

Turning to `COC(=O)N=C(NC(=O)Nc1ccc(Cl)c(C(=O)OC(C)C)c1)SC`, the melting point was in the range of 93 to 94 °C.

In turn, `CCN(CC)CCCCC1CCN(CC(=O)N2c3ccccc3NC(=O)c3c2ccn3C)CC1` yielded a melting point of 198 °C.

In turn, `CCc1nc2c(-c3cc4ccoc4cc3C)ncnc2n1C(C1CC1)C1CC1` registered a melting point of 139 to 141 °C.

`CC(=O)Nc1ccc(Oc2c([N+](=O)[O-])cc(C(=O)O)cc2S(=O)(=O)NC(C)=O)cc1` came in with a melting point of 305 to 306 °C.

Take `COC(=O)C1Cc2c(cccc2C(C)C)C(=O)CS1` (configuration not stated): the melting point was in the range of 116 to 117 °C.

`COc1cccc(Sc2ccnc(Nc3ccc(N4CCOCC4)cc3)n2)c1` displayed a melting point of 159 to 161 °C.

Turning to `CC1OC(n2cnc3c(S(N)(=O)=O)nc(N)nc32)C(O)C1O` (configuration not stated), the melting point was above 90 °C.

As to `O=C(O)CCc1cn(Cc2ccc(OCc3cncc(-c4ccccc4)c3)cc2)nc1-c1ccccc1`, the melting point was in the range of 161 to 162 °C.

For the compound `CCCc1cccc(N(CC(=O)OC)NC(=O)NC)c1`, the melting point lay within 76 to 77 °C.

As to `CCCCn1c(O)cc(C)c(C#N)c1=O`, the melting point lay within 218 to 222 °C.

`O=c1[nH]c2ccccc2c2nc(-c3ccco3)nn12` showed a melting point of 338 to 343 °C.

In turn, `CC1=CC(c2cccc(Cl)c2)C=C(CN2C(=O)c3ccccc3C2=O)N1` (configuration not stated) returned a melting point of 128 to 130 °C.

On to `CCCc1nc2c(N)nc(C)c(C)c2n1CCCC(C)=NOC`, for which the melting point lay within 144 to 146 °C.

For the compound `CCOc1ccc(C23CC2CN(C=O)C3)cc1` (configuration not stated), the melting point was in the range of 48 to 51 °C.

Take `CN1C(=O)C(NC(=O)CCCCc2ccccc2)N=C(N2CCCCCC2)c2ccccc21` (configuration not stated): the melting point was in the range of 140 to 141 °C.

On to `O=C1c2ccccc2C(=O)N1CCCCCCc1cncnc1`, for which the melting point fell in the range of 124 to 126 °C.

`CN1C(=O)CCC1(O)c1ccc(Cl)c(S(N)(=O)=O)c1` (configuration not stated): the melting point was 147 to 149 °C.

For the compound `c1cnc2c(c1)NCc1cccn1C2`, the melting point lay in the range of 171 to 172 °C.

The compound `COc1cc(OC)nc(Oc2cccc(Oc3nc(OC)cc(OC)n3)c2CO)n1` registered a melting point of 122 °C.

Consider `CCC(C)(C)OC(=O)NC(C)(Cc1c[nH]c2ccccc12)C(=O)NCCc1ccccn1` (configuration not stated), for which the melting point is 151 to 152 °C.

In the case of `N=C(Nc1ccccc1)N1CCC1`, the melting point was in the range of 116 to 119 °C.

On to `CNc1cc(NS(=O)(=O)c2ccc(N)cc2)nc(N(C)C)n1`, for which the melting point lay in the range of 253 to 254 °C.

Turning to `COc1ccc(-n2nnc(-c3ccc(Cl)cc3F)c2N)cc1`, the melting point was in the range of 148 to 150 °C.

For `COc1cc(NC(=O)Nc2cnc3c(C)cc(C)cc3c2-c2ccccc2Cl)cc(OC)c1OC`, the melting point lay in the range of 204 to 206 °C.

As for `Cc1ccc(N2C(=O)C(O)=C(C(=O)c3ccc(OC(F)(F)F)cc3)C2c2ccc(C(C)C)cc2)nn1` (configuration not stated), the melting point amounted to 269 °C.

`COc1ccccc1[C@@]1(O)[C@H](O)CC(c2ccccc2)(c2ccccc2)[C@@H]2CN(C(=O)Cc3ccc(N)cc3)C[C@@H]21` (racemic) yielded a melting point of 188 °C.

Regarding `CON=Cc1ccc(-c2ccccc2NC(=O)c2c(C)nn(C)c2F)cc1F`, the melting point lay within 158 to 161 °C.

Compound `COCc1cc2c(C(=O)Nc3c(C)noc3C)ccc(OC)c2o1` had a melting point of 168 to 170 °C.

Compound `COc1cc2c(=O)cc[nH]c2cc1OCc1ccccc1` displayed a melting point of 235 to 236 °C.

`CCCCCCCCN(CCCCCCCC)C(=O)CS(=O)(=O)Nc1c(C(C)C)cccc1C(C)C` came in with a melting point of 107 to 109 °C.

As for `O=C(O)CN1C(=O)C(c2ccccc2)SC1=S` (configuration not stated), the melting point lay within 158 to 159 °C.

`COC(=O)CSc1ccc(OC)cc1C(=O)OC` registered a melting point of 55 to 57 °C.

`COc1cc(OC)nc(Sc2sccc2NS(=O)(=O)CC#N)c1` gave a melting point of 118 to 120 °C.

In turn, `Nc1cccc(CN2CCN(C(c3ccccc3)c3ccccc3)CC2)c1` registered a melting point of 104 to 106 °C.

Compound `c1nc(Nc2ccc(N3CCOCC3)cc2)cc(NC2CCCCC2)n1` yielded a melting point of 239 to 240 °C.

The compound `O=C(NC1CCCCC1)NC1CCN(CCc2c[nH]c3ccccc23)CC1` had a melting point of 204 °C.

For `CN(NC(=O)OC(C)(C)C)C(=O)OCc1ccccc1`, the melting point was in the range of 60 to 65 °C.

As to `CC(C(N)=O)c1ccc2c(c1)C(=O)Cc1ccccc1O2` (configuration not stated), the melting point fell in the range of 154 to 155 °C.

For `CCCCCC1CCC(c2ccc(-c3cc(F)c(C(F)(F)Oc4cc(F)c(C(F)(F)F)c(F)c4)c(F)c3)c(F)c2)OC1` (configuration not stated), the melting point came out at 75 °C.

Consider `Nc1cccc(C=Cc2ccc(O)cc2)n1`, for which the melting point was in the range of 224 to 225 °C.

Consider `CC1(CCN2CCN(C(C)(C)C)C(=O)C2)Cn2cc([N+](=O)[O-])nc2O1` (configuration not stated), for which the melting point was 153 to 154 °C.

Take `C=CCOc1ccc2c(c1)OCC1c3ccccc3OC21` (configuration not stated): the melting point is 72 to 74 °C.

Turning to `Fc1ccc(C(Cl)(Cn2cncn2)C2(n3cncn3)CC2)cc1` (configuration not stated), the melting point is 81 to 84 °C.

On to `CCN(CC)CCNc1ccc(CN(C)S(=O)(=O)CC)c2sc3ccccc3c(=O)c12`, for which the melting point was 159 to 161 °C.

`CN(Cc1cc(C(F)(F)F)cc(C(F)(F)F)c1)C(=O)c1c(-c2ccccc2C(F)(F)F)c2ccccc2c(=O)n1C` gave a melting point of 159 to 160 °C.

In the case of `CCOC(=O)c1ccc(OCCc2c(CCNS(=O)(=O)Cc3ccc(Cl)c(Cl)c3)n(C(c3ccccc3)c3ccccc3)c3ccc(Cl)cc23)cc1F`, the melting point was in the range of 83 to 85 °C.

As for `CCOc1ccc(CC(C)=O)cc1S(N)(=O)=O`, the melting point lay in the range of 158 to 159 °C.

Take `COc1ccc(-c2n[nH]c3c2Cc2ccccc2-3)cc1`: the melting point came out at 247 °C.

`O=S1CCN(c2nc(N3CCNCC3)cc3ccc(Cl)cc23)CC1`: the melting point fell in the range of 209 to 211 °C.

Compound `CCCNC(=O)c1nc(-c2ccccc2)c(-c2ccc(=O)[nH]n2)s1` returned a melting point of 232 to 233 °C.

In turn, `O=C(NCC12CC3CC(CC(C3)C1)C2)c1cc(Cl)ccc1Cl` gave a melting point of 161 to 162 °C.

On to `CC(C)=CCN1CC(=O)Nc2cc(S(=O)(=O)Oc3ccccc3)ccc21`, for which the melting point is 132 °C.

In the case of `O=C(NCCCc1ccccc1)Nc1ccccn1`, the melting point was 127 to 128 °C.

Take `Cc1cccc(C)c1CNc1cc(Br)cc2c1nc(C)n2C`: the melting point amounted to 185 °C.

`CN(C)c1cnc(N)cn1` displayed a melting point of 71.5 to 74.2 °C.

In the case of `CN(C)Cc1cc(OCCCO)cs1`, the melting point was in the range of 32 to 34 °C.

`CCCCc1ncc(CNC(C)(Cc2cccs2)C(=O)O)n1Cc1ccccc1Cl` (configuration not stated) displayed a melting point of 109 to 112 °C.

In the case of `Nc1cc(C(=O)N(Cc2ccccc2)Cc2ccccc2)ccc1OCc1ccccc1`, the melting point was determined as 81 °C.

For the compound `COc1cc([N+](=O)[O-])c2nccc(C)c2c1OC`, the melting point lay in the range of 123 to 125 °C.

`CCCCCCCCCCCCCCCCCCOC(=O)c1ccc(Cn2c(=S)sc3ccccc32)cc1`: the melting point fell in the range of 105 to 107 °C.

`CN(C)C(=O)CCCOc1ccc2c(c1)C[C@@H](NC(=O)OC(C)(C)C)CC2` showed a melting point of 97 to 101 °C.

Consider `O=C(C1CCC(Nc2nccc(-n3cc(Cc4ccc(-c5ccncc5)cc4)nn3)n2)CC1)N1CCC(O)CC1` (configuration not stated), for which the melting point was 266 to 267 °C.

`C[C@@H]1N(c2ccc(C#N)c(Cl)c2)C(=O)C[C@@]1(O)C1CC1` displayed a melting point of 93 to 100 °C.

Regarding `COc1ccc([PH](=O)c2ccc(OC)cc2)cc1`, the melting point worked out at 126 °C.

`COc1ccc(C(=O)C2(Br)CCCCC2)c(Cl)c1Cl` had a melting point of 94 to 95 °C.

The compound `COC(=O)Cc1cc(=O)[nH]c2cc(Br)ccc12` had a melting point of 208 to 210 °C.

Take `CCOC(=O)c1c(Cl)nc(-c2ccccc2)c([N+](=O)[O-])c1C(=O)OCC`: the melting point was in the range of 65 to 66 °C.

In turn, `COC(=O)N1CCCC2CN(c3ccc(N4CC(CNC(C)=O)OC4=O)cc3F)CC21` (configuration not stated) displayed a melting point of 83 to 85 °C.

As to `O=C1c2c(O)ccc(O)c2C(=O)c2c(NCCN(CCO)C(=O)C(F)(F)F)ccc(NCCN(CCO)C(=O)C(F)(F)F)c21`, the melting point turned out to be 162 °C.

Consider `O=C1CCC(N2Cc3c(OCc4ccc(Cn5cnnc5)cc4)cccc3C2=O)C(=O)N1` (configuration not stated), for which the melting point was in the range of 173 to 175 °C.
